Assay results as given in the NIST ThermoML archive (doi:10.1021/acs.jced.8b00589).

Key:
[1] = for surface tension liquid-gas: Ring tensiometer; for viscosity / speed of sound / mass density: 100 kPa, Liquid; for viscosity: Capillary tube (Ostwald / Ubbelohde) method; for speed of sound: Frequency=2 MHz, Linear variable-path acoustic interferometer; for mass density: Vibrating tube method
[2] = xn = mol fraction of the nth substance listed; details: x2 = 0; for surface tension liquid-gas: Ring tensiometer; for viscosity / speed of sound / mass density: 100 kPa, Liquid; for viscosity: Capillary tube (Ostwald / Ubbelohde) method; for speed of sound: Frequency=2 MHz, Linear variable-path acoustic interferometer; for mass density: Vibrating tube method

Cc1cccc(C)c1 [1,3-dimethylbenzene]
[1]
Details	mass density [kg/m3]	speed of sound [m/s]	surface tension liquid-gas [mN/m]	viscosity [mPa·s]
298.15 K	859.1	1320.9	28.19	0.59
308.15 K	849.2	1280	26.95	0.525
318.15 K	840.4	1238.2	25.64	0.482
323.15 K	835.8	1218.4	25	0.443
328.15 K	831.6	1195.2	24.37	0.433

Cc1cccc(C)c1 [1,3-dimethylbenzene] + CCC(C)(C)OC
[2]
Details	mass density [kg/m3]	speed of sound [m/s]	surface tension liquid-gas [mN/m]	viscosity [mPa·s]
298.15 K	859.1	1320.9	28.19	0.59
308.15 K	849.2	1280	26.95	0.525
318.15 K	840.4	1238.2	25.64	0.482
323.15 K	835.8	1218.4	25	0.443
328.15 K	831.6	1195.2	24.37	0.433

CCCCCC [hexane]
[1]
Details	mass density [kg/m3]	speed of sound [m/s]	surface tension liquid-gas [mN/m]	viscosity [mPa·s]
298.15 K	654.7	1073.2	17.75	0.295
308.15 K	645.4	1031.2	16.63	0.263
318.15 K	636.2	981.26	15.52	0.24
323.15 K	631.2	960.75	14.96	0.232
328.15 K	626.4	940.39	14.41	0.223

CCCCCC [hexane] + CCC(C)(C)OC
[2]
Details	mass density [kg/m3]	speed of sound [m/s]	surface tension liquid-gas [mN/m]	viscosity [mPa·s]
298.15 K	654.7	1073.2	17.75	0.295
308.15 K	645.4	1031.2	16.63	0.263
318.15 K	636.2	981.23	15.52	0.24
323.15 K	631.2	960.75	14.96	0.232
328.15 K	626.4	940.35	14.41	0.223

CCC(C)(C)OC [2-methoxy-2-methylbutane]
[1]
Details	mass density [kg/m3]	speed of sound [m/s]	surface tension liquid-gas [mN/m]	viscosity [mPa·s]
298.15 K	765.6	1118	19.72	0.424
308.15 K	756.3	1075.6	18.66	0.39
318.15 K	746.3	1031.1	17.65	0.357
323.15 K	741.4	1003	17.13	0.34
328.15 K	736.5	985.24	16.62	0.328
